Measurements reported in patent publication US10668125B2, “Peptide having highly-shifted accumulation to pancreatic cancer cells and tissues, and use of said peptide” (Niigata University, priority 2015, dated 2020).
Where no end group is shown, it is not given here.

Assays:
[1] = tested on: KYN-2 cells and normal cells originating from various tissues; assay: Test Example 1: accumulation of peptide to other cancer cells and normal cells (fluorescence microscope); type: cell-based, human; conditions: FITC-labeled peptide 2 μM, 2 hours at 37° C., FIG. 1
Procedure: (§1) These were maintained by subculture in the laboratory by the inventors.
(§2) Pancreatic cancer cells and HPNE cells were cultured using a 5% FBS-containing CS-C medium kit. KYN-2 cells, HaCaT cells, NHDF cells, MMNK-1 cells, and Liver cells were cultured using 10% FBS-containing RPMI1640 medium. Kidney cells were cultured using a proliferation medium for normal human renal epithelial cells (RenaLife Comp Kit). NuLi-1 cells were cultured using BEGM medium (Bronchial Epithelial Growth Medium, Serum-free). TIME cells were cultured using EBM-2-MV Bullet kit (Endothelial Cell Basal Medium-2 Bullet kit).
(§3) Those cells were cultured for 2 hours at 37° C. Subsequently, the cells were washed three times with the medium in order to remove the peptide-containing medium. Subsequently, the uptake of the various peptides in the living cells was visually evaluated using an inverted type fluorescence microscope. Prior to the microscopic examination, the culture supernatant containing the peptides were removed, the cells were washed three times with 1×PBS (−), and then the cells were treated with trypsin. Adherent cells were detached and were immediately transferred into a fresh 96-well plate. The cells were resuspended in a fresh culture fluid, and then a microscopic examination was performed.

[2] = tested on: various pancreatic cancer cells (BxPC3, PK-8, PL45, AsPC1, Panc1); assay: Test Example 1: accumulation of peptide to pancreatic cancer cells (fluorescence microscope); type: cell-based, human; conditions: FITC-labeled peptide 2 μM, 2 hours at 37° C., FIG. 1
Procedure: as §1, §2, §3

[3] = tested on: BxPC3 cells; assay: Test Example 3: accumulation of peptide in tissues of mouse with BxPC3 cells transplanted into the pancreas; type: in vivo
Procedure: NOD-SCID mice (six-week-old female mice purchased from Crea-Japan, Inc.) having BxPC3 cells, which are human pancreatic cancer cells, transplanted into the pancreas in an amount of 1×10^6 cells in each animal, were produced as human pancreatic cancer cell-transplanted mice. Thirty days after the transplantation of human pancreatic cancer cells, Peptide 4 produced in Example 1 was intravenously (i.v.) injected to the mice in an amount of 150 μg with respect to 20 g of the mouse body weight. […] In FIG. 4, the “Bright Field” refers to images taken in the bright field, and “FITC” refers to images taken in the dark field under the conditions of green fluorescence excitation at a wavelength of 488 nm. Furthermore, in FIG. 4, “brain” means the brain, “heart” means the heart, “kidney” means the kidney, “liver” means the liver, “lung” means the lung, “muscle” means the skeletal muscle, “pancreas” means the pancreas, “spleen” means the spleen, and “tumor” means a malignant tumor. “Surface” means the surface of various organs, and “transection” means a transverse section of various organs.
FIG. 5 is a graph showing the proportions of the fluorescence intensities detected in various tissues, the proportions being obtained by designating the fluorescence detected in normal pancreas as 1.0.

[4] = tested on: BxPC3 cells; assay: Test Example 1: quantitative fluorescence in BxPC3 cells relative to HPNE cells; type: cell-based, human; conditions: absorption into normal pancreatic duct epithelial cells (HPNE) designated as 1.0, 2 μM, 2 hours, FIG. 2B
Procedure: as §3
The graph of FIG. 2A is a graph showing the proportions of fluorescence intensities detected in various cells, the proportions being obtained by quantitatively analyzing the fluorescence detected in the various cells to which various peptides were added in Test Example 1, and determining relative values by designating the fluorescence detected in HPNE cells, which are a human immortalized normal pancreatic duct epithelial cell line, as 1.0. […]

[5] = tested on: Panc1 cells; assay: Test Example 2: accumulation of peptide in tissues of mouse intraperitoneally transplanted with Panc1 cells; type: in vivo; conditions: NOD-SCID mice with Panc1 cells, i.v. 300 μg per 20 g body weight, 30 minutes after administration, FIG. 3A
Procedure: (§4) NOD-SCID mice (six-week-old female mice purchased from Crea-Japan, Inc.) intraperitoneally transplanted with Panc1 cells or PK-8 cells, which are human pancreatic cancer cells, in an amount of 1×10^6 cells in each animal, were produced as human pancreatic cancer cell-transplanted mice. Thirty days after the transplantation of human pancreatic cancer cells, Peptide 1 produced in Example 1 was intravenously (i.v.) injected to the mice in an amount of 300 μg with respect to 20 g of the mouse body weight. […] In FIG. 3A and FIG. 3B, the “Bright Field” refers to images taken in the bright field, and “FITC” refers to images taken in the dark field under the conditions of green fluorescence excitation at a wavelength of 488 nm.

[6] = tested on: PK-8 cells; assay: Test Example 2: accumulation of peptide in tissues of mouse intraperitoneally transplanted with PK-8 cells; type: in vivo; conditions: NOD-SCID mice with PK-8 cells, i.v. 300 μg per 20 g body weight, 30 minutes after administration, FIG. 3B
Procedure: as §4

Row | Sequence | fluorescence detected in KYN-2 cells and normal cells originating from various tissues [1] | fluorescence detected in the various pancreatic cancer cells [2] | fluorescence of FITC in tumor lesions and normal organs ([3]; NOD-SCID mice with BxPC3 cells in pancreas, i.v. 150 μg per 20 g body weight, 30 minutes after administration, FIG. 4) | S/N ratio in the target malignant tumor ([3]; absorption into normal pancreas designated as 1.0, i.v. 150 μg per 20 g, 30 minutes, FIG. 5) | S/N ratio in the kidneys ([3]; absorption into normal pancreas designated as 1.0, i.v. 150 μg per 20 g, 30 minutes, FIG. 5, ascribed to urinary excretion, not cell uptake) | absorption ratio (S/N ratio) into BxPC3 cells [4] | fluorescence of FITC in tumor lesions and normal organs [5] | fluorescence of FITC in tumor lesions and normal organs [6]
1 | RAWRQCRWR (also: FITC label, site not given here) [Peptide 3, IVV library-derived 9-amino acid residue peptide, synthesized FITC-labeled] | fluorescence was hardly detected | strong fluorescence was detected |  |  |  |  |  | 
2 | RRPTTWHKP (also: FITC label, site not given here) [Peptide 4, IVV library-derived 9-amino acid residue peptide, synthesized FITC-labeled] | fluorescence was hardly detected | strong fluorescence was detected | strong fluorescence of FITC was detected in the tumor and the kidneys | about 9 times | about 11 times |  |  | 
3 | ARRYTWIRA (also: FITC label, site not given here) [Peptide 2, IVV library-derived 9-amino acid residue peptide, synthesized FITC-labeled] | fluorescence was hardly detected | strong fluorescence was detected |  |  |  | about 6 times |  | 
4 | GYRRTTPSYWRMWLR (also: FITC label, site not given here) [Peptide 1, IVV library-derived 15-amino acid residue peptide, synthesized FITC-labeled] | fluorescence was hardly detected | strong fluorescence was detected |  |  |  | about 6 times | strong fluorescence of FITC was detected in the tumor and the metastatic lesions | strong fluorescence of FITC was detected in the tumor and the metastatic lesions
